Assay results: patent US4745123A, “Substituted tetrahydro-3-pyridine-carboxylic acid, ester, and amide cholinergic agents” (priority 1986, dated 1988)
pIC50: −log10 of the molar value.

How the values were obtained:
[1] = molecular target: muscarinic binding site; experiment: inhibition of specific binding at the muscarinic binding site
Procedure: The compounds were assayed at one or more concentrations in each binding assay.

[2] = test system: patients clinically diagnosed as having presenile primary degenerative dementia; conditions: double blind study, Christie et al. (1981); cited from earlier work
[3] = test system: rats; experiment: reversal of retrograde amnesia in rats produced by electroconvulsive shock treatment; assay type: in vivo, rat (Charles River CD strain); parameters: reversal of retrograde amnesia (Table C): scale not given here
Procedure: Several representative compounds of the present invention were also assayed in an in vivo test designed to assess the ability of the compounds to reverse retrograde amnesia in rats produced by electroconvulsive shock treatment. Activity of a compound in this test is indicative of potential cognition activating activity in human patients suffering from impaired cognitive function.
In the test, groups of fifty weanling rats (Charles River CD strain) are randomly divided into five sub-groups of ten rats each. The rats are trained by placing them in a highly illuminated 6 inch by 8 inch box which opens into a darkened 8 inch by 12 inch chamber having electrified grids. Initially, rats move freely from the illuminated compartment to the darkened chamber through a 4 inch by 4 inch doorway.
When a rat has all four feet within the darkened chamber, the floor of the darkened chamber is electrified and the rat is electrically shocked until it exits to the original illuminated area. If a rat reenters the darkened chamber before one minute has elapsed, it again receives a mild foot shock until it exits to the illuminated area. When the rat remains in the illuminated area for a period of one minute, it is removed and placed in a group holding cage.
Two hours after the above training, the rats are given a single 20 ma electroconvulsive shock of 1 second duration and immediately returned to the holding cage.
Two hours after the delivery of the shock, the rats are administered the test compound orally, or intraperitoneally or intramuscularly for special tests.
One hour after treatment with the test compound, the rats are tested for retention of the avoidance response. This is accomplished by placing a drug-treated rat in the illuminated area of the test chamber. […] Any rat entering the darkened chamber within sixty seconds is designated as having amnesia for this response.
The five sub-groups of ten rats each were treated as follows:
A 50% difference between the baseline and ceiling control groups was required to evaluate a particular test compound. If a difference of less than 50% was observed, the results of that particular experiment were discarded.
Under the test conditions, a difference of this magnitude is statistically significant using the multinomial expansion of the statistical chi-square test.

SMILES	pIC50 [1]	test of picture recognition [2]	active (A) / inactive (N), reversal of retrograde amnesia ([3]; 0.01 mg/kg)	reversal of retrograde amnesia (Table C) ([3]; 0.01 mg/kg)	active (A) / inactive (N), reversal of retrograde amnesia ([3]; 0.1 mg/kg)	reversal of retrograde amnesia (Table C) ([3]; 0.1 mg/kg)	active (A) / inactive (N), reversal of retrograde amnesia ([3]; 1.0 mg/kg)	reversal of retrograde amnesia (Table C) ([3]; 1.0 mg/kg)
COC(=O)C1=CCCN(C)C1 [Arecoline, methyl ester of 1,2,5,6-tetrahydro-1-methyl-3-pyridinecarboxylic acid, reference compound]	5.96	Significant improvement	–	–	–	–	–	–
COC(=O)C1=C(c2ccccc2)CCN(C)C1 [Example 21, 1,2,5,6-tetrahydro-1-methyl-4-phenyl-3-pyridinecarboxylicacid, methyl ester]	5.50	–	A ("active" (A) if the difference between the numbers of animals in the drug and control groups reentering the darkened chamber was equal or greater than three out of ten)	57	N (if less than three, the test compound was considered "inactive" (N))	57	N (if less than three, the test compound was considered "inactive" (N))	0
CCCN1CCC(c2ccccc2)=C(C(=O)OC)C1 [Example 22, 1,2,5,6-Tetrahydro-4-phenyl-1-propyl-3-pyridinecarboxylic acid, methyl ester]	5.19	–	A ("active" (A) if the difference between the numbers of animals in the drug and control groups reentering the darkened chamber was equal or greater than three out of ten)	57	A ("active" (A) if the difference between the numbers of animals in the drug and control groups reentering the darkened chamber was equal or greater than three out of ten)	81	A ("active" (A) if the difference between the numbers of animals in the drug and control groups reentering the darkened chamber was equal or greater than three out of ten)	57
